# Assay results published in patent publication US10883087B2, “Uricase sequences and methods of treatment” (MedImmune, LLC, priority 2015, dated 2021).
# T1: Arthrobacter globiformis uricase, wt, SEQ ID NO: 27 (amino terminal His tag) (Arthrobacter globiformis, UniProt D0VWQ1)
# T1 sequence (D0VWQ1 1-302): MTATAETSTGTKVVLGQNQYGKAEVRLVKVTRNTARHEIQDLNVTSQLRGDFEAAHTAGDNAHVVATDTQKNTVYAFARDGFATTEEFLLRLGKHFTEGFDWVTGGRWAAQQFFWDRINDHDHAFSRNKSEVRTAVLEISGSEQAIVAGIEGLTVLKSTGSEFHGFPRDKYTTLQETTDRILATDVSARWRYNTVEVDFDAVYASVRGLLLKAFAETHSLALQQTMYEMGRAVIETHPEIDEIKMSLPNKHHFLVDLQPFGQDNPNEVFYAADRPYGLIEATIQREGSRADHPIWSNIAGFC
# B1: Arthrobacter globiformis uricase, wt, SEQ ID NO: 27 (amino terminal His tag) (Arthrobacter globiformis) (protein)
# chain: T1 sequence (D0VWQ1 1-302)
# B2: Deinococcus radiodurans uricase, SEQ ID NO: 29 (amino terminal His tag) (Deinococcus radiodurans R1 = ATCC 13939 = DSM 20539) (protein)
# chain: MMTGTQQPGTQPKVKVRLGENNYGKAEVQLMKIKRGTPRHELREAKVRVAMYGDFGAAHSEGDNTDLVATDTVRNTVYGLAKEGFESSIEEFGKELLTHFVKVGPRVTGGFAEFTEHLWERVQTPAQPQGHDHAFVRQMPKRTARVETQDGRRFTVTSGIEELYVLKTTESGWENYLLDERFTTLPETHDRVMATFVTAKWEYAVESCDYDAVWERVYRQIQHTFTDHYSPSLQRTLYLMGEAVLSVCPEISRIWFQMPNKHHLVYNLGRFGLENNNEILHVDPEPYGLMEAWVERAE
# B3: Terriglobus saanensis uricase, SEQ ID NO: 32 (amino terminal His tag) (Terriglobus saanensis SP1PR4) (protein)
# chain: MAKLIDSRYGKARVRVMKLDRSQPQHQLLEWTVRVLLEGDFETAHTVGDNSNILPTDTMKNTVYSRAKESKAETPEEFAIELAEFLLGRNPQVHTVEVKIETAMWKRLVVDGKPHGSSFMRGSDELGTVLHHATRETKTMVCGVENMVILKSQNSSFEGYIQDDLTTLKPTADRLFATAMTADWDYTDGGSAFAARREAIREAMLKAFAEHDSKSVQQTLYAMAEAAMAAVPAVNRVHMVMPNKHCLLVDLKHFGQENNNEIFVPTEDPHGYIEATVVRE
# Key:
# Assay in all cases: Substrate depletion assay (UA)
# [1] = test system: O=c1[nH]c(=O)c2[nH]c(=O)[nH]c2[nH]1; type: biochemical, Deinococcus geothermalis; conditions: other: PB, pH 7.4, typically 30° C., UA 23.8-400 μM, 292 nm
# Protocol: (§4) Substrate depletion (UA) is another common method for assessing uricase activity. In the substrate depletion assay, uricase, UA, and phosphate buffer were incubated for 1 hour at the stated temperature (typically 30° C.). […] In some assays 1 mM DTT was added to the assay. The Molecular Devices reader temperature was set to the 30° C. Absorbance measurements at 292 nm were captured every 20 seconds for a period of 10 minutes. The rate of UA degradation was calculated by SoftMax Pro software. Vmax and Km were calculated for these uricases (see Table 5 below).
# [2] = test system: Krystexxa (pegloticase), PEGylated chimeric pig/baboon uricase; type: biochemical, pig and baboon (chimera); conditions: PB, pH 7.4, typically 30° C.; UA 23.8-400 μM; 292 nm
# Protocol: Five uricases (SEQ ID NOs: 27, 28, 29, 32, and 34) were evaluated for neutral pH solubility characteristics and activity in terms of product formation (H2O2) at pH 9.0 and 7.4. In the product formation assay, allantoin formation is proportional to H2O2 formation, which is linked to colorimetric horseradish peroxidase-catalyzed, colorimetric reaction. The appearance of hydrogen peroxide can be measured by an increase in absorbance at 540 nm. Product formation assays were proportional to substrate depletion assays in terms of uricase activity. […] The substrate depletion assays were much better for assessing kinetic parameters like Vmax and Km.
# Substrate depletion (UA) is another common method for assessing uricase activity. In the substrate depletion assay, uricase, UA, and phosphate buffer were incubated for 1 hour at the stated temperature (typically 30° C.). Uricase was then diluted to 1 μg/mL and combined with a curve of UA (400 μM diluted down 1:1.6 to 23.8 μM) in 0.1M phosphate buffer (PB), pH 7.4. In some assays 1 mM DTT was added to the assay. The Molecular Devices reader temperature was set to the 30° C. Absorbance measurements at 292 nm were captured every 20 seconds for a period of 10 minutes. The rate of UA degradation was calculated by SoftMax Pro software. Vmax and Km were calculated for these uricases (see Table 5 below). […]
# [3] = target: Deinococcus geothermalis uricase, SEQ ID NO: 28 (amino terminal His tag) (Deinococcus geothermalis, UniProt Q1J399); type: biochemical
# Protocol: as §4
# [4] = test system: Consensus uricase, SEQ ID NO: 34 (amino terminal His tag); type: biochemical; conditions: PB, pH 7.4, typically 30° C.; UA 23.8-400 μM; 292 nm
# Source text: After this process, the following 7 candidate sequences were chosen for further investigation: Arthrobacter globiformis uricase (SEQ ID NO: 27), Deinococcus geothermalis uricase (SEQ ID NO: 28), Deinococcus radiodurans uricase (SEQ ID NO: 29), Granulicella tundricola uricase (SEQ ID NO: 30), Solibacter usitatus uricase (SEQ ID NO: 31), Terriglobus saanensis uricase (SEQ ID NO: 32) and Kyrpidia tusciae uricase (SEQ ID NO: 33). Additionally, as an 8th sequence, a consensus uricase sequence was also devised from the alignment of many uricase sequences. The consensus sequence is represented by SEQ ID NO: 34.
# An initial screening paradigm was used to identify candidates for further optimization. […] Each uricase construct was evaluated for expression level and in particular, soluble expression. […] Protein yield was determined by measuring the absorbance at 280 nm. […]
# (§1) Five uricases (SEQ ID NOs: 27, 28, 29, 32, and 34) were evaluated for neutral pH solubility characteristics and activity in terms of product formation (H2O2) at pH 9.0 and 7.4. […] The appearance of hydrogen peroxide can be measured by an increase in absorbance at 540 nm. […]
# (§2) Substrate depletion (UA) is another common method for assessing uricase activity. […] The Molecular Devices reader temperature was set to the 30° C. Absorbance measurements at 292 nm were captured every 20 seconds for a period of 10 minutes. […]
# [5] = target: T1, Arthrobacter globiformis uricase, wt, SEQ ID NO: 27 (amino terminal His tag); type: biochemical
# Protocol: (§3) An initial screening paradigm was used to identify candidates for further optimization. The 8 uricase sequences described in Example 1 were cloned with an amino terminal His tag and expressed in E. coli. Each uricase construct was evaluated for expression level and in particular, soluble expression. Uricase expressing E. coli were lysed and soluble material was separated from insoluble (pellet) material. The lysates were separated by SDS-PAGE and the proteins were visualized by Coomassie blue staining. […] The pig-baboon chimera appears to express almost entirely in the pellet (P) (insoluble) fraction (FIG. 1, Lane 9). Cytosolic soluble (S) expression was considered a favorable property. […] Protein yield was determined by measuring the absorbance at 280 nm. […]
# as §1
# as §2, with “minutes. The rate of UA degradation was calculated by SoftMax Pro software. Vmax and Km were calculated for these uricases (see Table 5 below).” for “minutes.”
# [6] = substrate: O=c1[nH]c(=O)c2[nH]c(=O)[nH]c2[nH]1; type: biochemical, Arthrobacter globiformis
# Protocol: as §3, §1
# as §2, with “minutes. The rate of UA degradation was calculated by SoftMax Pro software. Vmax and Km were calculated for these uricases (see Table 5 below).” for “minutes.”
# [7] = substrate: O=c1[nH]c(=O)c2[nH]c(=O)[nH]c2[nH]1; type: biochemical, Deinococcus radiodurans; conditions: other: PB, pH 7.4, typically 30° C., UA 23.8-400 μM, 292 nm
# Protocol: as §3, §1
# as §2, with “minutes. The rate of UA degradation was calculated by SoftMax Pro software. Vmax and Km were calculated for these uricases (see Table 5 below).” for “minutes.”
# [8] = substrate: O=c1[nH]c(=O)c2[nH]c(=O)[nH]c2[nH]1; type: biochemical, Terriglobus saanensis; conditions: other: PB, pH 7.4, typically 30° C., UA 23.8-400 μM, 292 nm
# Protocol: as §3, §1
# as §2, with “minutes. The rate of UA degradation was calculated by SoftMax Pro software. Vmax and Km were calculated for these uricases (see Table 5 below).” for “minutes.”
molecule,measurement,setting,value
"Deinococcus geothermalis uricase, SEQ ID NO: 28 (amino terminal His tag) (Deinococcus geothermalis DSM 11300)",Km,[1],55.7 µM
"O=c1[nH]c(=O)c2[nH]c(=O)[nH]c2[nH]1 [UA, uric acid]",Km,[2],116 µM
same,Vmax,[2],5.7
same,Vmax,[3]; compared with Krystexxa,10.8
same,better kcat/Km relative to Krystexxa,[3]; ratio to Krystexxa,~2 fold
same,improved Vmax relative to Krystexxa,[3]; ratio to Krystexxa (10.8 versus 5.7),2 fold
same,Km,[4],31.8 µM
same,better kcat/Km relative to Krystexxa,[5]; ratio to Krystexxa,~2 fold
same,better Km relative to Krystexxa,[5]; ratio to Krystexxa (55.7 versus 116.3),2 fold
B1,Km,"[6]; other: PB, pH 7.4, typically 30° C., UA 23.8-400 μM, 292 nm, pH 7.4",110 µM
same,Km,"[6]; other: restated in text, compared with Krystexxa, 30.0 °C",55.7 µM
B2,Km,[7],83.1 µM
B3,Km,[8],76.2 µM
